Experimental data: patent US20260327242A1, “Platform and Scaffold for FAP Targeting Agents” (Erasmus University Medical Center Rotterdam, priority 2022, published 2026)

Assays:
[1] = biological target: T1, human FAP (hFAP) (Homo sapiens, UniProt Q12884); experiment: In vitro inhibition assay on human FAP (Z-GP-AMC substrate); type: biochemical; settings: 20 μM Z-GP-AMC, 20 nM FAP, pH 7.4, room temperature
T1 sequence (Q12884 26-760 limits assumed): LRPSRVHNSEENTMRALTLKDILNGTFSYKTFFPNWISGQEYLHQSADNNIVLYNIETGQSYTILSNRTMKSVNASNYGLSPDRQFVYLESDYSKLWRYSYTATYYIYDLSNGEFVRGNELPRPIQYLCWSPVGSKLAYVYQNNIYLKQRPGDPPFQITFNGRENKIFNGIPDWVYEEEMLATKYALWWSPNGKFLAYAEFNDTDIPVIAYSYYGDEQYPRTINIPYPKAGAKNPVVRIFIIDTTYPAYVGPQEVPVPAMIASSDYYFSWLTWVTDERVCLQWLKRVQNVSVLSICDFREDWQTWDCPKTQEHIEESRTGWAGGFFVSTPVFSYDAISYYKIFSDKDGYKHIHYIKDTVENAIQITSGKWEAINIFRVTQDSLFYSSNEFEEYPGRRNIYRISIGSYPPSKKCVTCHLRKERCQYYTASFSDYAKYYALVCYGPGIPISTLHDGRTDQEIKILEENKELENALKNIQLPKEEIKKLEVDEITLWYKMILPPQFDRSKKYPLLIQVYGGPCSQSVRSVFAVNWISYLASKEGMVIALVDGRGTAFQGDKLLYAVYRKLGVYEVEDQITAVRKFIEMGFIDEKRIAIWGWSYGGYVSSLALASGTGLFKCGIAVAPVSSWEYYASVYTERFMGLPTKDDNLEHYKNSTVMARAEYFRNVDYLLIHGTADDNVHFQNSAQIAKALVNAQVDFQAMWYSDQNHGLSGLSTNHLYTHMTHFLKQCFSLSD
Protocol: (§1) Enzymatic activity of human FAP (hFAP) and mouse FAP (mFAP) on the Z-GP-AMC substrate was measured at room temperature on a Hidex microplate reader by monitoring the fluorescence at an excitation wavelength of 360 nm and an emission wavelength of 465 nm. The reaction mixture contained 20 μM substrate, 20 nM FAP, assay buffer (50 mM Tris, 100 mM NaCl, 1 mM EDTA, pH 7.4) and tested compound (serial dilution from 10-6 to 10^−12) in a total volume of 50 μL.

[2] = biological target: T2, mouse FAP (mFAP) (Mus musculus, UniProt P97321); experiment: In vitro inhibition assay on mouse FAP (Z-GP-AMC substrate); type: biochemical; settings: 20 μM Z-GP-AMC, 20 nM FAP, pH 7.4, room temperature
T2 sequence (P97321 26-761 limits assumed): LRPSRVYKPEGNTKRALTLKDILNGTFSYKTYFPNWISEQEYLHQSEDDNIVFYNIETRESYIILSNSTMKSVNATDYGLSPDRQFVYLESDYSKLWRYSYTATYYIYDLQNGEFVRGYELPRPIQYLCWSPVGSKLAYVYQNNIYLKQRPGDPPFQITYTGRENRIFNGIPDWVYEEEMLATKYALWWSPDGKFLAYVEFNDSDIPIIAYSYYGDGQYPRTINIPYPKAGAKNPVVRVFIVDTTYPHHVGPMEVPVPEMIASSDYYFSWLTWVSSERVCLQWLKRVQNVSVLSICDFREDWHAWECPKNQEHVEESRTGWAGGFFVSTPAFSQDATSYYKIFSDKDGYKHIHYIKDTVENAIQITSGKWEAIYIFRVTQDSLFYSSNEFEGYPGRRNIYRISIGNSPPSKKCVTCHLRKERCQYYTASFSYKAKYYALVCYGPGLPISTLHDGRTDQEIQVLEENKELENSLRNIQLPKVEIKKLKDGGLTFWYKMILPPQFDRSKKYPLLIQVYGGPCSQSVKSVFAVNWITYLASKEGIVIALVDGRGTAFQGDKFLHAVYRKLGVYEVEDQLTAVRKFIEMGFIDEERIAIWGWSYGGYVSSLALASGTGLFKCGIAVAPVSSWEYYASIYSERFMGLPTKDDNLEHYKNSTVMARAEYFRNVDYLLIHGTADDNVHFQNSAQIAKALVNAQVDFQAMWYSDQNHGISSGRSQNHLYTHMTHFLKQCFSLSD
Protocol: as §1
Results with FAPI-46 obtained in the same assay is included for comparison.

IC50 [1]	IC50 [2]	Structure (SMILES)
1.15 nM	1.11 nM	N#C[C@@H]1CC(F)(F)CN1C(=O)CNC(=O)c1ccnc2c(OCCCNC(=O)CCSc3nnc(SCCC(=O)NCCCOc4cccc5c(C(=O)NCC(=O)N6CC(F)(F)C[C@H]6C#N)ccnc45)c4c3CCCC(OC(=O)NCCCNC(=O)CCC(C(=O)O)N3CCN(CC(=O)O)CCN(CC(=O)O)CCN(CC(=O)O)CC3)CC4)cccc12 (stereo partly drawn) [eFAP-20, 2,2′,2″-(10-(4-((3-((((1,4-bis((3-((3-((4-((2-((S)-2-cyano-4,4-difluoropyrrolidin-1-yl)-2-oxoethyl)carbamoyl)quinolin-8-yl)oxy)propyl)amino)-3-oxopropyl)thio)-5,6,7,8,9,10-hexahydrocycloocta[d]pyridazin-7-yl)oxy)carbonyl)amino)propyl)amino)-1-carboxy-4-oxobutyl)-1,4,7,10-tetraazacyclododecane-1,4,7-triyl)triacetic acid]
–	2 ± 0.4 nM	N#C[C@@H]1CC(F)(F)CN1C(=O)CNC(=O)c1ccnc2c(OCCCNC(=O)CC(O)CNC(=O)CC(O)CNC(=S)Nc3ccc4c(c3)C(=O)OC43c4ccc(O)cc4Oc4cc(O)ccc43)cccc12 (stereo partly drawn) [eFAP-23, N-(2-((S)-2-cyano-4,4-difluoropyrrolidin-1-yl)-2-oxoethyl)-8-(3-(4-(4-(3-(3′,6′-dihydroxy-3-oxo-3H-spiro[isobenzofuran-1,9′-xanthen]-5-yl)thioureido)-3-hydroxybutanamido)-3-hydroxybutanamido)propoxy)quinoline-4-carboxamide]
1.8 nM	–	N#C[C@@H]1CC(F)(F)CN1C(=O)CNC(=O)c1ccnc2c(OCCCNC(=O)CCSCC(=O)N3CN(C(=O)CSCCC(=O)NCCCOc4cccc5c(C(=O)NCC(=O)N6CC(F)(F)C[C@H]6C#N)ccnc45)CN(C(=O)Cn4nnc5c4CC[C@H]4[C@@H](CC5)[C@H]4COC(=O)NCCNC(=O)CCC(C(=O)O)N4CCN(CC(=O)O)CCN(CC(=O)O)CCN(CC(=O)O)CC4)C3)cccc12 (stereo partly drawn) [eFAP-34]
4.01 ± 0.28 nM	3.72 ± 0.11 nM	CC1(C)C(/C=C/C2=C(Oc3ccc(S(=O)(=O)O)cc3)C(=C/C=C3/N(CCCCCC(=O)NCC(O)CC(=O)NCCCOc4cccc5c(C(=O)NCC(=O)N6CC(F)(F)C[C@H]6C#N)ccnc45)c4ccc(S(=O)(=O)O)cc4C3(C)C)/CCC2)=[N+](CCCCS(=O)(=O)[O-])c2ccc(S(=O)(=O)O)cc21 (stereo partly drawn) [eFAP-27, 4-(2-((E)-2-((E)-3-(2-((E)-1-(6-((4-((3-((4-((2-((S)-2-cyano-4,4-difluoropyrrolidin-1-yl)-2-oxoethyl)carbamoyl)quinolin-8-yl)oxy)propyl)amino)-2-hydroxy-4-oxobutyl)amino)-6-oxohexyl)-3,3-dimethyl-5-sulfoindolin-2-ylidene)ethylidene)-2-(4-sulfophenoxy)cyclohex-1-en-1-yl)vinyl)-3,3-dimethyl-5-sulfo-3H-indol-1-ium-1-yl)butane-1-sulfonate]
–	1.8 ± 0.2 nM	N#C[C@@H]1CC(F)(F)CN1C(=O)CNC(=O)c1ccnc2c(OCCCNC(=O)CN3CCN(C(=O)CN4CCN(CC(=O)O)CCN(CC(=O)O)CCN(CC(=O)O)CC4)CC3)cccc12 [eFAP-12, (S)-2,2′,2″-(10-(2-(4-(2-((3-((4-((2-(2-Cyano-4,4-difluoropyrrolidin-1-yl)-2-oxoethyl)carbamoyl)quinolin-8-yl)oxy)propyl)amino)-2-oxoethyl)piperazin-1-yl)-2-oxoethyl)-1,4,7,10-tetraazacyclododecane-1,4,7-triyl)triacetic acid]
–	1.3 ± 0.6 nM	N#C[C@@H]1CC(F)(F)CN1C(=O)CNC(=O)c1ccnc2c(OCCCNC(=O)CN3CCN(CCNC(=O)CN4CCN(CC(=O)O)CCN(CC(=O)O)CCN(CC(=O)O)CC4)CC3)cccc12 [eFAP-13, (S)-2,2′,2″-(10-(2-((2-(4-(2-((3-((4-((2-(2-Cyano-4,4-difluoropyrrolidin-1-yl)-2-oxoethyl)carbamoyl)quinolin-8-yl)oxy)propyl)amino)-2-oxoethyl)piperazin-1-yl)ethyl)amino)-2-oxoethyl)-1,4,7,10-tetraazacyclododecane-1,4,7-triyl)triacetic acid]
2.9 ± 0.6 nM	2.3 ± 0.3 nM	N#C[C@@H]1CC(F)(F)CN1C(=O)CNC(=O)c1ccnc2c(OCCCNC(=O)C3CCC(CNC(=O)CN4CCN(CC(=O)O)CCN(CC(=O)O)CCN(CC(=O)O)CC4)CC3)cccc12 (stereo partly drawn) [eFAP-9, 2,2′,2″-(10-(2-(((4-((3-((4-((2-((S)-2-Cyano-4,4-difluoropyrrolidin-1-yl)-2-oxoethyl)carbamoyl)quinolin-8-yl)oxy)propyl)carbamoyl)cyclohexyl)methyl)amino)-2-oxoethyl)-1,4,7,10-tetraazacyclododecane-1,4,7-triyl)triacetic acid]
0.35 nM	–	N#C[C@@H]1CC(F)(F)CN1C(=O)CNC(=O)c1ccnc2c(OCCCNC(=O)CCOCCOCCNCC(=O)N3CN(C(=O)CNCCOCCOCCC(=O)NCCCOc4cccc5c(C(=O)NCC(=O)N6CC(F)(F)C[C@H]6C#N)ccnc45)CN(C(=O)Cn4nnc5c4CC[C@H]4[C@@H](CC5)[C@H]4COC(=O)NCCNC(=O)CCC(C(=O)O)N4CCN(CC(=O)O)CCN(CC(=O)O)CCN(CC(=O)O)CC4)C3)cccc12 (stereo partly drawn) [eFAP-36]
–	0.8 ± 0.1 nM	N#C[C@@H]1CC(F)(F)CN1C(=O)CNC(=O)c1ccnc2c(OCCCNC(=O)CCOCCOCCNc3nc(NCCCn4nnc5c4CC[C@H]4[C@@H](CC5)[C@H]4COC(=O)NCCNC(=O)CCC(C(=O)O)N4CCN(CC(=O)O)CCN(CC(=O)O)CCN(CC(=O)O)CC4)nc(NCCOCCOCCC(=O)NCCCOc4cccc5c(C(=O)NCC(=O)N6CC(F)(F)C[C@H]6C#N)ccnc45)n3)cccc12 (stereo partly drawn) [eFAP-37]
1.7 nM	–	N#C[C@@H]1CC(F)(F)CN1C(=O)CNC(=O)c1ccnc2c(OCCCNC(=O)CCCCCSCC(=O)N3CN(C(=O)CSCCCCCC(=O)NCCCOc4cccc5c(C(=O)NCC(=O)N6CC(F)(F)C[C@H]6C#N)ccnc45)CN(C(=O)Cn4nnc5c4CC[C@@H]4[C@H](CC5)[C@@H]4COC(=O)NCCNC(=O)CCC(C(=O)O)N4CCN(CC(=O)O)CCN(CC(=O)O)CCN(CC(=O)O)CC4)C3)cccc12 (stereo partly drawn) [eFAP-35]
–	2.5 ± 0.8 nM	CN1/C(=C/C=C/C=C/C2=[N+](CCCCCC(=O)NCCCOc3cccc4c(C(=O)NCC(=O)N5CC(F)(F)C[C@H]5C#N)ccnc34)c3ccc(S(=O)(=O)[O-])cc3C2(C)C)C(C)(C)c2cc(S(=O)(=O)O)ccc21 [eFAP-7, 1-(6-((3-((4-((2-((S)-2-Cyano-4,4-difluoropyrrolidin-1-yl)-2-oxoethyl)carbamoyl)quinolin-8-yl)oxy)propyl)amino)-6-oxohexyl)-3,3-dimethyl-5-sulfo-2-((1E,3E)-5-((E)-1,3,3-trimethyl-5-sulfoindolin-2-ylidene)penta-1,3-dien-1-yl)-3H-indol-1-ium]
–	1.5 ± 0.2 nM	N#C[C@@H]1CC(F)(F)CN1C(=O)CNC(=O)c1ccnc2c(OCCCNC(=O)COCC(=O)Nc3ccc(CNC(=O)CN4CCN(CC(=O)O)CCN(CC(=O)O)CCN(CC(=O)O)CC4)cc3)cccc12 [eFAP-11, (S)-2,2′,2″-(10-(2-((4-(2-(2-((3-((4-((2-(2-Cyano-4,4-difluoropyrrolidin-1-yl)-2-oxoethyl)carbamoyl)quinolin-8-yl)oxy)propyl)amino)-2-oxoethoxy)acetamido)benzyl)amino)-2-oxoethyl)-1,4,7,10-tetraazacyclododecane-1,4,7-triyl)triacetic acid]
